We go through eleven molecules from EP0031926A2, “Radioimmunological set for the determination of progesterone and its use, and radioimmunoassay method for the determination of progesterone” (HOECHST AKTIENGESELLSCHAFT, priority 1979, dated 1981).

The test system of the test is gegen Progesteron-11α-bernsteinsäurehalbester-ovalbumin erzeugten Antiserum. The test is described as follows: Cross-reactivity of steroids in the radioimmunoassay for progesterone (competitive binding, 125I-labelled progesterone-3 tracer, charcoal separation). Further details: species or system Kaninchen. The conditions noted are these: relative to Progesteron = 100; acid buffer; heterologous system (11α-protein conjugate antiserum, 3-iodinated tracer). An excerpt:
Die vorliegende Erfindung stellt ein Radioimmunobesteck und eine Bestimmungsmethode für Progesteron zur Verfügung, welche dadurch gekennzeichnet ist, daß man in saurem Medium, vorzugsweise einem sauren Puffer, eine Flüssigkeitsprobe mit einer bekannten Menge von gegen ein Progesteron/Proteinkonjugat erzeugten Antikörpern, wobei das Protein über eine Brückengruppe in 11-Stellung, im allgemeinen 11α-Stellung, an das Progesteron gebunden ist, und mit einer bekannten Menge eines Progesteronderivats,das in 3-Stellung über eine Brücke mit einem Rest substituiert ist, welcher ein oder mehrere Atome eines Jodradioisotops trägt, inkubiert, . das in dem entstandenen Antikörper /Antigenkomplex gebundene Steroid von der freien Steroidkomnonente abtrennt und deren Radioaktivität oder die des Antikörper/Antigenkomplexes mißt. Im allgemeinen wird das Antiserum zuletzt zugesetzt, und der Indikator wird vorzugsweise zum Standard bzw. zur Probe gegeben.
Wie oben erwähnt ist die eigentliche Bestimmung eine herkömmliche radioimmunologische Bestimmung mit Bindungskonkurrenz, d.h. sie ist abhängig von der Konkurrenz zwischen unmarkiertem Progesteron und einem radiojodierten Progesteronderivat um die Bindungsstellen eines progesteronspezifischen Antikörpers. Der an den Antikörper gebundene Anteil an jodiertem Progesteron ist der Menge des vorhandenen unmarkierten Progesterons umgekehrt proportional. Dieser Anteil wird dadurch gemessen, daß man die gebundenen und freien Komponenten trennt, im allgemeinen durch Adsorption der letzteren, und die Radioaktivität der einen oder der anderen mißt.
Die bevorzugte Reagenzienkombination für die erfindungsgemäße Bestimmungsmethode besteht aus einem gegen Progesteron-11α-bernsteinsäurehalbester-ovalbumin erzeugten Antiserum und Progesteron-3-(0-carboxymethyl)-oxim-[^125J]-jodhistamin. J]-jodhistamin.
Die Bestimmung wird auf herkömmliche Weise durchgeführt, beispielsweise erstellt man einen Satz Röhrchen, die jeweils ein Aliquot an 3-jodiertem Indikator und entweder eine bekannte Menge einer Standardprogestercnlösung in einem geeigneten, von Steroid befreiten Verdünnungsmittel oder eine unbekannte Probe enthalten. Vorzugsweise gibt man den Indikator zum Standard oder zur Probe. Ein Aliquot des Antiserums wird in jedes Röhrchen gegeben, dessen Inhalt gut vermischt und stehengelassen wird, vorzugsweise bei 0 - 4°C. Die Bestimmung läßt sich jedoch auch bei höheren Temperaturen, z.B. Raumtemperatur oder 37°C, durchführen. Nach Ablauf einer gewissen Zeit, vorzugsweise 21/2 - 5 Stunden, wird jedem Röhrchen ein Aliquot eines Trennmittels zugesetzt. Das Trennmittel ist beispielsweise ein zweiter Antikörper oder (NH4)2S04, jedoch vorzugsweise Aktivkohle. Man läßt dem Trennmittel genügend Zeit, um das freie Steroid zu binden, trennt es vom Rest des Röhrcheninhalts, im Falle von Aktivkohle vorzugsweise durch Zentrifugieren, und bestimmt die Radioaktivität der festen oder flüssigen Phase. Im Falle von Aktivkohle als Adsorptionsmittel wird vorzugsweise die feste Phase, d.h. die Radioaktivität des freien (nichtantikörpergebundenen) jodierten Indikators gemessen.Andernfalls kann man eine Probe der überstehenden flüssigen Phase nehmen und zählen. Man erstellt eine Standardkurve, und die in der Probe vorliegende Menge Progesteron kann aus der Kurve interpoliert werden.
Die Kreuzreaktivität verschiedener Steroide bei der erfindungsgemäßen Bestimmungsmethode ist unten angegeben.
Regarding `CC(=O)[C@H]1CC[C@H]2[C@@H]3CCC4=CC(=O)CC[C@]4(C)[C@H]3CC[C@]12C` [Progesteron], the “% Kreuzreaktivität” value turned out to be 100%.
Under `CC(=O)[C@H]1CC[C@H]2[C@@H]3CC[C@H]4CC(=O)CC[C@]4(C)[C@H]3CC[C@]12C` [5α-Pregnan-3,20-dion] stands 6,0%; under `CC(=O)[C@H]1CC[C@H]2[C@@H]3CC=C4C[C@@H](O[C@@H]5O[C@H](C(=O)O)[C@@H](O)[C@H](O)[C@H]5O)CC[C@]4(C)[C@H]3CC[C@]12C` [Pregnenolonglucuronid], 10,0%.
On to `C[C@H](O)[C@H]1CC[C@H]2[C@@H]3CC[C@@H]4C[C@H](O)CC[C@]4(C)[C@H]3CC[C@]12C` [5ß-Pregnan-3α, 20α-diol], for which the “% Kreuzreaktivität” value was 0,7%.
Take `C[C@]12C[C@H](O)[C@H]3[C@@H](CCC4=CC(=O)CC[C@@]43C)[C@@H]1CC[C@@H]2C(=O)CO` [Corticosteron]: the “% Kreuzreaktivität” value is on record as 2,7%.
Turning to `C[C@]12CC[C@H]3[C@@H](CCC4=CC(=O)CC[C@@]43C)[C@@H]1CC[C@@H]2C(=O)CO` [Desoxycorticosteron], the “% Kreuzreaktivität” value is recorded as 0,01%.
In the case of `C[C@H](O)[C@H]1CC[C@H]2[C@@H]3CCC4=CC(=O)CC[C@]4(C)[C@H]3CC[C@]12C` [20α-Hydroxyprogesteron] it was 0,25%.
In the case of `CC(=O)[C@@]1(O)CC[C@H]2[C@@H]3CCC4=CC(=O)CC[C@]4(C)[C@H]3CC[C@@]21C` [17α-Hydroxyprogesteron], the “% Kreuzreaktivität” value was 1,3%.
For `CC(=O)[C@H]1CC[C@H]2[C@@H]3CC[C@@H]4C[C@H](O)CC[C@]4(C)[C@H]3CC[C@]12C` [5ß-Pregnan-3α-01-20-on], the “% Kreuzreaktivität” value was 8,0%.
In the case of `CC(=O)[C@H]1CC[C@H]2[C@@H]3CC=C4C[C@@H](O)CC[C@]4(C)[C@H]3CC[C@]12C` [Pregnenolon], the “% Kreuzreaktivität” value is listed as 10,5%.
In the case of `CC(=O)[C@H]1CC[C@H]2[C@@H]3CC=C4C[C@@H](OS(=O)(=O)O)CC[C@]4(C)[C@H]3CC[C@]12C` [Pregnenolonsulfat] it was 0,4%.
